Experimental data from US9605064B2, “Methods and compositions for treatment of skin disorders” (AbbVie Biotechnology Ltd, priority 2006, dated 2017).
Several values for one entry are separate records, joined by “and”; a condition that tells them apart may be missing. Equal values may be shown once. Marks after values point to notes of the source that are not given here.

Test system: patients with moderate to severe chronic plaque psoriasis
Assay: PASI response, Phase II 12-week placebo-controlled trial with 48-week extension
Type: in vivo, human
Details: for Number of Patients Who Qualified for Dosage Escalation: 40 mg eow (n = 12); for PASI 50 (% patients) After Dose Escalation / PASI 75 (% patients) After Dose Escalation / PASI 90 (% patients) After Dose Escalation: escalation from eow to weekly dosing
Description: Efficacy outcome measures included PASI and PGA.
The two primary clinical outcome measures used in this study were the psoriasis area and severity index (PASI) and the physician's global assessment (PGA). PASI improvement of greater than or equal to 75% (used as an endpoint in psoriasis clinical trials) at week 12 was the primary efficacy outcome measure for this study. PASI is a composite index indicating severity for three main signs of psoriatic plaques (erythema, scaling, and thickness), weighted by the amount of coverage of these plaques in four main body areas, i.e., head, trunk, upper extremities, and lower extremities. PASI scores, which range from 0-72, with higher scores indicating greater severity, were assessed at screening, baseline, week 1, week 2, week 4, week 8, week 12/early termination, and follow-up.
Skin and safety outcomes were assessed up to Week 60.
Analytical methods included the following: • Analyses of clinical data were performed on a modified intention-to-treat population (ITT). […] Patients whose dosages were increased on or after Week 24 were considered non-responders; • Patients with similar percentage PASI improvement across treatment arms were pooled into four strata: PASI<50, PASI 50-74, PASI 75-99, and PASI 100; and • Week-60 distribution of DLQI scores, mean DLQI scores, and mean change in DLQI from Week 0-60 were calculated within each stratum.
Frequently used as an endpoint in psoriasis clinical trials, the PASI [25] was the primary efficacy outcome in this trial. PASI is a composite index indicating the severity of the three main signs of psoriatic plaques (i.e., erythema, scaling, and thickness) and is weighted by the amount of coverage of these plaques in the four main body areas (head, trunk, upper extremities, and lower extremities). PASI scores range from 0-72, with higher scores indicating greater disease severity. PASI was assessed at screening and baseline, at Weeks 1, 2, 4, 8, and 12/Early Termination, and at the final follow-up visit.
At week 12, placebo patients received an 80-mg loading dose, then 40 mg every other week. […] Patients who receive the rescue therapy were considered non-responders in this analysis.

[1] = 40 mg eow, Week 60, modified ITT, NRI
[2] = 40 mg weekly, Week 60, modified ITT, NRI
[3] = (placebo→eow+eow) group, week 60, observed analysis
[4] = Efficacy at Weeks 24-60 (n = 22)
[5] = Week 12, adalimumab 40 mg eow, modified ITT, NRI
[6] = Week 12, adalimumab 40 mg weekly, modified ITT, NRI
[7] = Week 24, adalimumab 40 mg eow, modified ITT, NRI
[8] = Week 24, adalimumab 40 mg weekly, modified ITT, NRI
[9] = Week 24, placebo/adalimumab 40 mg eow (adalimumab from Week 12), modified ITT, NRI
[10] = Week 36, adalimumab 40 mg eow, modified ITT, NRI
[11] = Week 36, adalimumab 40 mg weekly, modified ITT, NRI
[12] = Week 36, placebo/adalimumab 40 mg eow (adalimumab from Week 12), modified ITT, NRI
[13] = Week 60, adalimumab 40 mg eow, modified ITT, NRI

With “Adalimumab: a human anti-TNF mAb, described in U.S. Pat. No. 6,090,382 as D2E7 (HUMIRA, Abbott Laboratories)” the “Number of Patients Who Qualified for Dosage Escalation” value (“Number of Patients Who Qualified” for short) (Week 24) was 9, the “Number of Patients Who Qualified” value (Week 28) was 1 and the “Number of Patients Who Qualified” value (Week 32) was 0. The “Number of Patients Who Qualified” value (Week 44) was 1, the “Number of Patients Who Qualified” value (Week 52) was 0 and the “Number of Patients Who Qualified” value (Week 60) was 1. The “patients with sustained, clinically significant improvement” value (40 mg eow dosing) was roughly 80%, the “Overall PASI 75 response rate” value (40 mg eow, Week 12, modified ITT, NRI) was 53* % of Patients and the “Overall PASI 75 response rate” value (40 mg eow, Week 24, modified ITT, NRI) was 64 % of Patients. The “Overall PASI 75 response rate” value (40 mg eow, Week 36, modified ITT, NRI) was 64 % of Patients, the “Overall PASI 75 response rate” value [1] was 58 % of Patients and 56 % of Patients and the “PASI 50 response rate” value [1] was 64 % Patients. For the same substance, the “PASI 90 response rate” value [1] was 33 % Patients, the “PASI 100 response rate” value [1] was 16 % Patients and the “Overall PASI 75 response rate” value (40 mg eow, Week 60, modified ITT, NRI, listed as adalimumab) was 58 % of Patients. For the same substance, the “mean percentage PASI improvement” value (40 mg every other week dosage of placebo/adalimumab, week 60) was 69%, the “mean percentage PASI improvement” value (40 mg of adalimumab alone, on a weekly basis, week 60) was 69% and the “Overall PASI 75 response rate” value (40 mg weekly, Week 12, modified ITT, NRI) was 80* % of Patients. The “Overall PASI 75 response rate” value (40 mg weekly, Week 24, modified ITT, NRI) was 72 % of Patients, the “Overall PASI 75 response rate” value (40 mg weekly, Week 36, modified ITT, NRI) was 68 % of Patients and the “Overall PASI 75 response rate” value [2] was 64 % of Patients. For the same substance, the “PASI 50 response rate” value [2] was 66 % Patients, the “PASI 90 response rate” value [2] was 48 % Patients and the “PASI 100 response rate” value [2] was 26 % Patients. For the same substance, the “mean percentage PASI improvement” value (40 mg weekly, week 60) was 84%, the “PASI 75-99 response rate” value [3] was 38 and the “PASI 100 response rate” value [3] was 17. The “PASI 75 Response at Week 60, patients eligible for dose escalation” value (Adalimumab 40 mg eow (n = 9)) was 22% (2/9), the “PASI 50 (% patients) After Dose Escalation” value (Efficacy at Week 60 (n = 22)) was 36% and the “PASI 75 (% patients) After Dose Escalation” value (Efficacy at Week 60 (n = 22)) was 18%. For the same substance, the “PASI 90 (% patients) After Dose Escalation” value (Efficacy at Week 60 (n = 22)) was 0%, the “PASI 50 (% patients) After Dose Escalation” value [4] was 55% and the “PASI 75 (% patients) After Dose Escalation” value [4] was 23%. The “PASI 90 (% patients) After Dose Escalation” value [4] was 5%, the “PASI 75 Response at Week 60, patients eligible for dose escalation” value (Placebo/Adalimumab 40 mg eow (n = 13)) was 15% (2/13) and the “Percentages of Patients with > PASI 75 Response” value (Week 12, 40 mg eow (Table 79)) was 53%. For the same substance, the “Percentages of Patients with > PASI 75 Response” value (Week 12, 40 mg weekly (Table 79)) was 80%, the “Percentage of patients who achieved PASI 100” value (Week 12, adalimumab 40 mg eow, NRI) was 11* % and the “PASI 50 (% patients)” value [5] was 76%. For the same substance, the “Percentage of patients who achieved PASI 75” value [5] was 53%, the “Percentage of patients who achieved PASI 90” value [5] was 24% and the “Percentage of patients who achieved PASI 100” value (Week 12, adalimumab 40 mg weekly, NRI) was 26* %. For the same substance, the “PASI 50 (% patients)” value [6] was 88%, the “Percentage of patients who achieved PASI 75” value [6] was 80% and the “Percentage of patients who achieved PASI 90” value [6] was 48%. For the same substance, the “Patients Eligible for Dose Escalation (<PASI 50 response), number” value (“Patients Eligible … number” below) (Week 24, Adalimumab 40 mg eow (n = 9)) was 5, the “Patients Eligible … number” value (Week 24, Placebo/Adalimumab 40 mg eow (n = 13)) was 5 and the “Percentage of patients who achieved PASI 100” value (Week 24, adalimumab 40 mg eow, NRI) was 13%. The “Percentage of patients who achieved PASI 75” value [7] was 64%, the “Percentage of patients who achieved PASI 90” value [7] was 42% and the “Percentage of patients who achieved PASI 100” value (Week 24, adalimumab 40 mg weekly, NRI) was 24%. For the same substance, the “Percentage of patients who achieved PASI 75” value [8] was 72%, the “Percentage of patients who achieved PASI 90” value [8] was 62% and the “Percentage of patients who achieved PASI 100” value (Week 24, placebo/adalimumab 40 mg eow (adalimumab from Week 12), NRI) was 11%. For the same substance, the “Percentage of patients who achieved PASI 75” value [9] was 55%, the “Percentage of patients who achieved PASI 90” value [9] was 32% and the “Patients Eligible … number” value (Week 28, Adalimumab 40 mg eow (n = 9)) was 1. For the same substance, the “Patients Eligible … number” value (Week 28, Placebo/Adalimumab 40 mg eow (n = 13)) was 2, the “Patients Eligible … number” value (Week 32, Adalimumab 40 mg eow (n = 9)) was 0 and the “Patients Eligible … number” value (Week 32, Placebo/Adalimumab 40 mg eow (n = 13)) was 2. For the same substance, the “Percentage of patients who achieved PASI 100” value (Week 36, adalimumab 40 mg eow, NRI) was 22%, the “Percentage of patients who achieved PASI 75” value [10] was 64% and the “Percentage of patients who achieved PASI 90” value [10] was 49%. For the same substance, the “Percentage of patients who achieved PASI 100” value (Week 36, adalimumab 40 mg weekly, NRI) was 36%, the “Percentage of patients who achieved PASI 75” value [11] was 68% and the “Percentage of patients who achieved PASI 90” value [11] was 58%. For the same substance, the “Percentage of patients who achieved PASI 100” value (Week 36, placebo/adalimumab 40 mg eow (adalimumab from Week 12), NRI) was 19%, the “Percentage of patients who achieved PASI 75” value [12] was 62% and the “Percentage of patients who achieved PASI 90” value [12] was 43%. The “Patients Eligible … number” value (Week 44, Adalimumab 40 mg eow (n = 9)) was 1, the “Patients Eligible … number” value (Week 44, Placebo/Adalimumab 40 mg eow (n = 13)) was 1 and the “Patients Eligible … number” value (Week 52, Adalimumab 40 mg eow (n = 9)) was 0. For the same substance, the “Patients Eligible … number” value (Week 52, Placebo/Adalimumab 40 mg eow (n = 13)) was 3, the “Patients Eligible … number” value (Week 60, Adalimumab 40 mg eow (n = 9)) was 2 and the “Patients Eligible … number” value (Week 60, Placebo/Adalimumab 40 mg eow (n = 13)) was 0. The “Percentage of patients who achieved PASI 100” value (Week 60, adalimumab 40 mg eow, NRI) was 16%, the “PASI 50 (% patients)” value [13] was 67% and the “Percentage of patients who achieved PASI 75” value [13] was 58%. The “Percentage of patients who achieved PASI 90” value [13] was 33% and the “Percentage of patients who achieved PASI 100” value (Week 60, adalimumab 40 mg weekly, NRI) was 26%.
